System: 3T3-L1 adipocytes
Test: Metabolic flux analysis (stoichiometric model) of adipocyte intermediary metabolism
Assay type: cell-based
Protocol: 3T3-L1 preadipocytes were plated onto 24-well plates and expanded in preadipocyte growth medium consisting of DMEM supplemented with calf serum (10% v/v), penicillin and streptomycin. Medium was replenished every other day. Two days post-confluence, the cells were induced to differentiate using an adipogenic cocktail (1 μg/ml insulin, 0.5 mM isobutylmethylxanthine, and 1 μM dexamethasone) added to a basal medium (DMEM with 10% fetal bovine serum and penicillin/streptomycin). After 48 hrs, the first medium was replaced with a second induction medium consisting of the basal adipocyte medium supplemented with only insulin. […] This basal medium was replenished every other day during the remainder of the culture experiments.
A stoichiometric model of adipocyte central carbon metabolism was constructed as described previously (Si Y, Yoon J, Lee K. American journal of physiology 2007; 292:E1637-46). The model consisted of the major pathways of central carbon metabolism (Table 1). Intracellular fluxes were estimated by solving a constrained non-linear optimization problem with stoichiometric and thermodynamic constraints (Nolan R P, Fenley A P, Lee K. Metab Eng 2006; 8:30-45).

[1] = PA 10 mM, day 12 post-induction

O=C(O)Cc1ccccc1 [phenylacetate]
Flux RXN 65 Mitochondrial exchange: 2-Oxoglutarate in, Malate out (PA 5 mM, day 12 post-induction): 36.9 ± 7.3 mmol/g-DNA/2 days | Flux RXN 66 Mitochondrial exchange: Pi in, Malate out (PA 5 mM, day 12 post-induction): 79.9 ± 9.7 mmol/g-DNA/2 days | Flux RXN 1 Glycolysis: Glucose + ATP = Glucose 6-P + ADP [1]: 341.0 ± 14.4 mmol/g-DNA/2 days | Flux RXN 3 Glycolysis: Fructose 6-P + ATP = Glyceraldehyde 3-P + Glycerone-P + ADP [1]: 332.9 ± 13.7 mmol/g-DNA/2 days | Flux RXN 4 Glycolysis: Glycerone-P = Glyceraldehyde 3-P [1]: 309.4 ± 13.0 mmol/g-DNA/2 days | Flux RXN 5 Glycolysis: Glyceraldehyde 3-P + NAD+ + ADP + Pi = P-Enolpyruvate + ATP + H2O [1]: 650.5 ± 26.0 mmol/g-DNA/2 days | Flux RXN 6 Glycolysis: P-Enolpyruvate + ADP + H+ = Pyruvate + ATP [1]: 725.6 ± 35.8 mmol/g-DNA/2 days | Flux RXN 7 Glycolysis: Pyruvate + NADH + H+ = Lactate + NAD+ [1]: 427.8 ± 9.4 mmol/g-DNA/2 days | Flux RXN 8 Pentose phosphate pathway: Glucose 6-P + 2 NADP+ + H2O = Ribulose 5-P + CO2 + 2 NADPH + 2 H+ [1]: 24.3 ± 18.5^ mmol/g-DNA/2 days | Flux RXN 9 Pentose phosphate pathway: 3 Ribulose 5-P = 2 Fructose 6-P + Glyceraldehyde 3-P [1]: 8.1 ± 6.2^ mmol/g-DNA/2 days | Flux RXN 10 TCA cycle (mitochondria) (PDC) [1]: 233.7 ± 25.1 mmol/g-DNA/2 days | Flux RXN 12 TCA cycle (mitochondria) [1]: 132.2 ± 19.3 mmol/g-DNA/2 days | Flux RXN 13 TCA cycle (mitochondria) [1]: 158.6 ± 26.1 mmol/g-DNA/2 days | Flux RXN 14 TCA cycle (mitochondria) [1]: 169.9 ± 26.6 mmol/g-DNA/2 days | Flux RXN 15 TCA cycle (mitochondria) [1]: 170.1 ± 27.0 mmol/g-DNA/2 days | Flux RXN 16 TCA cycle (mitochondria) [1]: 110.2 ± 17.8 mmol/g-DNA/2 days | Flux RXN 17 TCA cycle: Citrate + CoA + ATP = Acetyl-CoA + Oxaloacetate + ADP + Pi [1]: 75.1 ± 16.4 mmol/g-DNA/2 days | Flux RXN 18 TCA cycle: Oxaloacetate + NADH + H+ = Malate + NAD+ [1]: 0.0 ± 0.0^ mmol/g-DNA/2 days | Flux RXN 19 TCA cycle: Malate + NADP+ = Pyruvate + CO2 + NADPH [1]: 59.9 ± 9.2 mmol/g-DNA/2 days | Flux RXN 20 TCA cycle: Citrate + NADP+ = 2-Oxoglutarate + CO2 + NADPH + H+ [1]: 26.4 ± 6.9 mmol/g-DNA/2 days | Flux RXN 21 TCA cycle: Oxaloacetate + ATP = P-Enolpyruvate + CO2 + ADP [1]: 75.1 ± 16.4 mmol/g-DNA/2 days | Flux RXN 22 Oxidative phosphorylation (NADH + 0.5 O2) [1]: 213.9 ± 89.2 mmol/g-DNA/2 days | Flux RXN 23 Oxidative phosphorylation (FADH2 + 0.5 O2) [1]: 189.1 ± 27.3 mmol/g-DNA/2 days | Flux RXN 24 Palmitate biosynthesis [1]: 9.4 ± 2.0 mmol/g-DNA/2 days | Flux RXN 25 Tripalmitoylglycerol biosynthesis: Glycerone-P + 3 Palmitate to Tripalmitoylglycerol [1]: 23.5 ± 3.0 mmol/g-DNA/2 days | Flux RXN 26 Tripalmitoylglycerol + 3 H2O = Glycerol + 3 Palmitate [1]: 20.6 ± 2.4 mmol/g-DNA/2 days | Flux RXN 27 Tripalmitoylglycerol accumulation [1]: 2.9 ± 0.6 mmol/g-DNA/2 days | Flux RXN 28 Metabolism of ketone bodies [1]: 7.8 ± 0.2 mmol/g-DNA/2 days | Flux RXN 29 Metabolism of ketone bodies [1]: 0.0 ± 0.0^ mmol/g-DNA/2 days | Flux RXN 30 Metabolism of ketone bodies (to 3-Hydroxybutyrate) [1]: 15.9 ± 0.7 mmol/g-DNA/2 days | Flux RXN 31 Amino acid metabolism: Pyruvate + NH4+ + NADPH = Alanine [1]: 0.5 ± 0.1 mmol/g-DNA/2 days | Flux RXN 32 Amino acid metabolism: Aspartate + NH4+ = Asparagine [1]: 2.9 ± 0.2 mmol/g-DNA/2 days | Flux RXN 33 Amino acid metabolism: Aspartate = Oxaloacetate + NH4+ + NADH [1]: 0.0 ± 0.0^ mmol/g-DNA/2 days | Flux RXN 34 Amino acid metabolism: Cysteine = Pyruvate + NH4+ + NADH [1]: 0.0 ± 0.0^ mmol/g-DNA/2 days | Flux RXN 35 Amino acid metabolism: Glutamate = 2-Oxoglutarate + NH4+ + NADH [1]: 0.0 ± 0.0 mmol/g-DNA/2 days | Flux RXN 36 Amino acid metabolism: Glutamate + NH4+ + ATP = Glutamine [1]: 0.0 ± 0.0 mmol/g-DNA/2 days | Flux RXN 37 Amino acid metabolism: Serine + THF = Glycine [1]: 6.2 ± 0.4^ mmol/g-DNA/2 days | Flux RXN 38 Amino acid metabolism: Histidine + THF = Glutamate + NH4+ [1]: 0.5 ± 0.1 mmol/g-DNA/2 days | Flux RXN 39 Amino acid metabolism: Isoleucine + 2 CoA [1]: 7.5 ± 0.2 mmol/g-DNA/2 days | Flux RXN 40 Amino acid metabolism: Leucine + CoA + CO2 + ATP [1]: 7.9 ± 0.2 mmol/g-DNA/2 days | Flux RXN 41 Amino acid metabolism: Lysine = 2-Oxoadipate + 2 NH4+ + 3 NADH [1]: 0.0 ± 0.0^ mmol/g-DNA/2 days | Flux RXN 42 Amino acid metabolism: 2-Oxoadipate + CoA [1]: 0.0 ± 0.0^ mmol/g-DNA/2 days | Flux RXN 43 Amino acid metabolism: Methionine + Serine + ATP + CoA + THF [1]: 0.0 ± 0.0^ mmol/g-DNA/2 days | Flux RXN 44 Amino acid metabolism: Phenylalanine + O2 + NADH = Tyrosine [1]: 0.1 ± 0.3^ mmol/g-DNA/2 days | Flux RXN 45 Amino acid metabolism: Glutamate + ATP + 2 NADPH = Proline [1]: 1.5 ± 0.1 mmol/g-DNA/2 days | Flux RXN 46 Amino acid metabolism: Serine = Pyruvate + NH4+ [1]: 0.0 ± 0.0^ mmol/g-DNA/2 days | Flux RXN 47 Amino acid metabolism: Threonine + CoA to Glycine [1]: 0.2 ± 0.2 mmol/g-DNA/2 days | Flux RXN 48 Amino acid metabolism: Tryptophan + 3 O2 + NADPH = 2-Oxoadipate + Alanine + CO2 + NH4+ [1]: 0.0 ± 0.0^ mmol/g-DNA/2 days | Flux RXN 49 Amino acid metabolism: Tyrosine + 2 O2 [1]: 0.2 ± 0.5^ mmol/g-DNA/2 days | Flux RXN 50 Amino acid metabolism: Valine + CoA [1]: 3.8 ± 0.4 mmol/g-DNA/2 days | Flux RXN 51 Plasma exchange: Palmitate [1]: 0.8 ± 0.1 mmol/g-DNA/2 days | Flux RXN 52 Plasma exchange: Acetoacetate [1]: 0.0 ± 0.1 mmol/g-DNA/2 days | Flux RXN 53 Plasma exchange: Alanine [1]: 0.5 ± 0.1 mmol/g-DNA/2 days | Flux RXN 54 Plasma exchange: Aspartate [1]: 2.9 ± 0.2 mmol/g-DNA/2 days | Flux RXN 55 Plasma exchange: Cysteine [1]: 0.0 ± 0.0^ mmol/g-DNA/2 days | Flux RXN 56 Plasma exchange: Glutamate [1]: 0.9 ± 0.1 mmol/g-DNA/2 days | Flux RXN 57 Plasma exchange: Glycine [1]: 6.4 ± 0.4 mmol/g-DNA/2 days | Flux RXN 58 Plasma exchange: Serine [1]: 6.2 ± 0.4^ mmol/g-DNA/2 days | Flux RXN 59 Plasma exchange: Tyrosine [1]: 0.1 ± 0.2^ mmol/g-DNA/2 days | Flux RXN 60 Plasma exchange: O2 (calculated oxygen uptake rate) [1]: 202.1 ±59.1 *^ mmol/g-DNA/2 days | Flux RXN 61 Plasma exchange: CO2 [1]: 582.8 ± 66.5 mmol/g-DNA/2 days | Flux RXN 62 Plasma exchange: NH4+ [1]: 16.5 ± 1.3 mmol/g-DNA/2 days | Flux RXN 63 Mitochondrial exchange: Pyruvate [1]: 357.2 ± 37.5 mmol/g-DNA/2 days | Flux RXN 64 Mitochondrial exchange: Malate in, Citrate out [1]: 101.5 ± 16.0 mmol/g-DNA/2 days | Flux RXN 65 Mitochondrial exchange: 2-Oxoglutarate in, Malate out [1]: 26.4 ± 6.9 mmol/g-DNA/2 days | Flux RXN 66 Mitochondrial exchange: Pi in, Malate out [1]: 59.9 ± 9.2 mmol/g-DNA/2 days | Decrease of flux through phosphoenolpyruvate carboxykinase (phenylacetate): 40% | Reduction of de novo fatty acid synthesis (phenylacetate): ~40% | Reduction of triglyceride accumulation (phenylacetate): 40% | Increase of flux through glycolysis (phenylacetate (5 and 10 mM), day 12 post-induction): 15˜60% | Decrease of total flux of pyruvate into the mitochondrial reactions (phenylacetate at the higher concentration (10 mM)): 29% | Decrease of flux through the PPP (phenylacetate, noted only for the 5 mM condition): 83% | Increase of fluxes through other lipogenic reactions (including esterification) (phenylacetate, higher concentration having the larger effect): 64˜75%
